According to patent US8158165B2, “Preventative treatment and remission of allergic diseases” (CSIR, priority 2006, dated 2012):
Several values for one entry are separate records, joined by “and”; a condition that tells them apart may be missing. Equal entries are not always repeated.

Columns and labels:
[1] = system: Ovalbumin-induced bronchoconstriction; conditions: assay protocol reference data; cited from earlier work
IL-8 = IL-8 in bronchoalveolar lavage fluid after ovalbumin challenge (ELISA); assay type: in vivo, guinea pig; conditions: BALF, WG-1-101 500 mg/kg PO, Phenidone 30 mg/kg IV
Experimental: (§1) The test substance at 500 mg/kg was administered orally twice daily for 3 consecutive days and an additional final dose was added on testing day, then, one hour after final dose, the animals were injected intravenously (1 ml/kg) with a “cocktail”: Indomethacin (10 mg/kg), Mepyramine (2 mg/kg), and Propranolol (100 μg/kg), followed by challenge with ovalbumin 5 minutes later. […] Bronchoalveolar lavage fluid was retrieved after instilling 5 ml of phosphate buffered saline for 2 times. TNF-α, IL-1β and IL-8 in bronchoalveolar lavage fluid (BALF) supernatants were measured with ELISA after ovalbumin challenge. One-way ANOVA followed by Dunnett's Test was applied for comparison between the vehicle control and test compound-treated groups. P<0.05 is considered significant.
(§2) Bronchoalveolar lavage fluid (BALF) samples in the WG-I-101-treated group were prepared for measurements of TNF-α, IL-1β and IL-8 after ovalbumin challenge. One-way ANOVA followed by Dunnett's test was applied for comparison between the vehicle control and test compound-treated groups. P<0.05 is considered significant.
(§3) Bronchoalveolar lavage fluid (BALF) samples in the WG-I-101 treated group were prepared for measurements of TNF-α, IL-1β and IL-8 after Ovalbumin challenge. TNF-α, IL-1β and IL-8 levels of each sample were assessed using TNF-α, IL-1β and IL-8 ELISA kits, respectively. […]

[2] = system: Ovalbumin-induced bronchoconstriction; test: Pulmonary, Antigen/Lipoxygenase Metabolites, in Guinea Pigs (intratracheal pressure); assay type: in vivo, guinea pig
Experimental: Assays were performed at MDS Pharma in Taiwan and reference standards used as an integral part of each assay to ensure the validity of the results obtained. The biological assay employed was the Pulmonary, Antigen/Lipoxygenase Metabolites assay and the diethyl ether extract of Siphonochilus aethiopicus was evaluated for possible activity in this in vivo assay.
WG-I-101 was suspended in 0.5% CMC/0.1% Tween 80. The test substance at a dose of 500 mg/kg was given orally twice daily for 3 consecutive days and an additional final dose was added at one hour before challenge of Ovalbuminon testing day. Dosing volume of 10 ml/kg was used. The formulation is summarized as follows: […]
Groups of 5 Dunkin-Hartley derived male guinea pigs weighing 400±50 g (final day) were employed. The animals were anesthetized with pentobarbital sodium (50 mg/kg IP, with an additional 15 mg/kg IP if needed). An aluminum plate kept at 37° C. through water flow from a bath was placed beneath the test animals to maintain body temperature. The trachea was cannulated and a rodent ventilator (Harvard, USA) was used for artificial ventilation (10 ml/kg, 50 breaths/minute). Through a side-arm of the cannula, intratracheal pressure (ITP) was measured using a Pneumatic pulse transducer (Narco Biosystem, USA). A carotid artery was cannulated (PE50, Clay Adams, USA) for measurements of blood pressure using a Stathem P23×L transducer (Viggo-Spectramed, USA) and heart rate was obtained from lead II ECG. Guinea pigs were sensitized with IP injections of ovalbumin (0.5 μg/0.5 ml/animal) and Al (OH)3 (1 mg/0.5 ml/animal) on days 1 and 8. The animals were then challenged with 15 μg/kg of Ovalbumin (IV) between days 19 and 23 and bronchopulmonary constriction was recorded as an increase in ITP.
as §1
Anesthetized and artificially ventilated guinea pigs previously sensitized were pretreated with Mepyramine 2 mg/kg, Indomethacin 10 mg/kg and Propranol 0.1 mg/kg for 5 minutes; arterial blood pressure (BP, mm Hg), heart rate (HR, beats/min.) and tracheal pressure (TP, cm H2O) were recorded after oral dosing for 3 days. At the end of chronic dosing, antigen (Ovalbumin 15 μg/kg IV)-induced increase in tracheal pressure (ITP) above an initial baseline of 6 cm H2O was then recorded as an indication of bronchoconstriction. Percent (%) inhibition is calculated according to the formula of [Increase in Tracheal Pressure (vehicle-treated)]−[Increase in Tracheal Pressure (test substance-treated)/[Increase in Tracheal Pressure (vehicle-treated)]×100%. • 1. ΔITP: Changes in ITP over corresponding baseline values; (−) Oval: Response to vehicle or test substance alone and before Ovalbumin challenge; (+) Oval: Changes in response to Ovalbumin challenge. • 2. % Control: ITP response to test substance, vehicle expressed in terms of percentage of the ITP response to Ovalbumin (15 μg/kg IV) in the vehicle-treated control (100%). • 3. […]
The trachea is cannulated and the guinea pig ventilated with a Harvard rodent respirator in a closed system. Tracheal pressure is recorded through a side-arm of the cannula connected to a P23ID Statham transducer. […]

IL-1β = IL-1β in bronchoalveolar lavage fluid after ovalbumin challenge (ELISA); assay type: in vivo, guinea pig; conditions: BALF, WG-1-101 500 mg/kg PO, Phenidone 30 mg/kg IV
Experimental: as §1, §2, §3

TNF-α = TNF-α in bronchoalveolar lavage fluid after ovalbumin challenge (ELISA); assay type: in vivo, guinea pig; conditions: BALF, WG-1-101 500 mg/kg PO, Phenidone 30 mg/kg IV
Experimental: as §1, §2, §3

## CN1[C@@H]2CC[C@H]1C[C@@H](OC(=O)C(CO)c1ccccc1)C2 (stereo partly drawn) [Atropine]
[1]
  MED mg/kg i.v.: >10 mg/kg

## O=C(O)c1cc(=O)c2c(OCC(O)COc3cccc4oc(C(=O)O)cc(=O)c34)cccc2o1 [Cromolyn Sodium]
[1]
  MED mg/kg i.v.: >100 mg/kg

## CCCc1c(OCCCCc2nnn[nH]2)ccc(C(C)=O)c1O [LY-171883, 1[2-hyroxy-3-propyl-4-[4-(1H-tetrazol-5-yl)butoxy]phenyl]ethanone]
[1]
  MED mg/kg i.v.: 30 mg/kg

## CC(Cc1ccc(O)c(O)c1)C(C)Cc1ccc(O)c(O)c1 (stereo not drawn) [NDGA, nordihydroguaretic acid]
[1]
  MED mg/kg i.v.: 10 mg/kg

## O=C1CCN(c2ccccc2)N1 [Phenidone]
IL-8; group mean, * P<0.05 vs vehicle
  IL-8 Cont(pg/ml), X: 0.97* pg/ml
IL-8; individual animals N 1-5
  IL-8 Cont(pg/ml): 3.63 pg/ml and 1.22 pg/ml and 0.00 pg/ml (3×)
[1]
  MED mg/kg i.v.: 30 mg/kg
[2]; ITP response to test substance as % of Ovalbumin response in vehicle control
  % Control: 0%
[2]; group mean of 5, response to Ovalbumin 15 μg/kg IV, WG-1-101 500 mg/kg PO bidx3 & qdx1, Phenidone 30 mg/kg IV qdx1
  ΔITP (cm H2O) (+) Oval, X ± SEM: 1.8 ± 0.8 cm H2O
[2]; group mean, before Ovalbumin challenge, WG-1-101 500 mg/kg PO bidx3 & qdx1, Phenidone 30 mg/kg IV qdx1
  ΔITP (cm H2O) (−) Oval, X ± SEM: 0 cm H2O
[2]; individual animals N 1-5, before Ovalbumin challenge, WG-1-101 500 mg/kg PO bidx3 & qdx1, Phenidone 30 mg/kg IV qdx1
  ΔITP (cm H2O) (−) Oval: 0 cm H2O
[2]; individual animals N 1-5, response to Ovalbumin 15 μg/kg IV, WG-1-101 500 mg/kg PO bidx3 & qdx1, Phenidone 30 mg/kg IV qdx1
  ΔITP (cm H2O) (+) Oval: 4.8 cm H2O and 1.8 cm H2O and 1.2 cm H2O and 0.6 cm H2O (2×)
[2]; relative to vehicle-treated control, WG-1-101 500 mg/kg PO bidx3 & qdx1, Phenidone 30 mg/kg IV qdx1
  % Inhibition of Ovalbumin-induced bronchoconstriction: (89) %
IL-1β; group mean
  IL-1β (pg/ml), X: 1.21 pg/mL
IL-1β; individual animals N 1-5
  IL-1β: 3.10 pg/mL and 0.24 pg/mL and 0.46 pg/mL and 2.25 pg/mL and 0.00 pg/mL
TNF-α; group mean
  TNF-α (pg/ml), X: 7.62 pg/mL
TNF-α; individual animals N 1-5
  TNF-α: 12.03 pg/mL and 7.0 pg/mL and 3.79 pg/mL and 8.96 pg/mL and 6.33 pg/mL

## CC(C)(C)NCC(O)c1ccc(O)c(CO)c1 (stereo not drawn) [Salbutamol]
[1]
  MED mg/kg i.v.: 0.1 mg/kg
